Read-outs that look alike come from different tables or passages of the source.
Legend:
[1] = Clinical study in healthy adult subjects: safety
[2] = Clinical study in healthy adult subjects: pharmacokinetics; assay type: in vivo, human; conditions: for half-life / AUC(0-t) / AUC(0-inf) / Cmax / Vd/F: human, plasma; for Vd/F: read-out: Vz/F
[3] = DDI portion, 10 mg with 200 mg q12h ketoconazole
[4] = single oral dose 1 mg, mean (%CV)
[5] = single oral dose 2 mg, mean (%CV)
[6] = single oral dose 5 mg, mean (%CV)
[7] = single oral dose 10 mg, mean (%CV)
[8] = single oral dose 20 mg, mean (%CV)
[9] = single oral dose 30 mg, mean (%CV)

SMILES: C[C@H](Nc1ncnc2[nH]cnc12)c1cc2cccc(Cl)c2c(=O)n1-c1ccccc1 [Compound 292]
- deaths and serious adverse events (SAEs) ([1]; all doses evaluated): no deaths and no serious adverse events
- safety laboratory or electrocardiogram (ECG) abnormalities ([1]; any portion of the study): No clinically significant safety laboratory or electrocardiogram (ECG) abnormalities
- QTcF at any assessment ([1]; serial ECGs): ≤ 500 ms
- largest change from baseline in QTcF ([1]; serial ECGs): 37 ms
- tolerability ([1]; single doses up to 30 mg and up to 10 mg total daily dose for 14 days): well tolerated
- excretion of unchanged compound in urine [2]: < 2 % of the administered dose
- time to peak plasma concentrations [2]: 0.5 to 1 h
- accumulation ([2]; 14 days of Q12 h oral administration): less than 2 fold
- increase of AUC0-inf in the presence of ketoconazole [2, 3]: ~295%
- increase of AUC0-last in the presence of ketoconazole [2, 3]: ~285%
- increase of Cmax in the presence of ketoconazole [2, 3]: approximately 66%
- decrease of Cmax in the presence of a high fat meal ([2]; food effect portion, 25 mg): approximately 10%
- half-life ([2]; oral, following a single dose, read-out: half-life): 3.5 to 9.5 h
- AUC(0-t) ([2]; po, 1 mg, single oral dose 1 mg, mean (%CV), read-out: AUC(0-24)): 149 ng·h/mL
- AUC(0-t) ([2]; po, 1 mg, single oral dose 1 mg, mean (%CV), read-out: AUC(0-t)): 148 ng·h/mL
- half-life ([2]; po, 1 mg, single oral dose 1 mg, mean (%CV), read-out: T1/2 (converted)): 3.52 h
- AUC(0-t) ([2]; po, 2 mg, single oral dose 2 mg, mean (%CV), read-out: AUC(0-24)): 289 ng·h/mL
- AUC(0-t) ([2]; po, 2 mg, single oral dose 2 mg, mean (%CV), read-out: AUC(0-t)): 291 ng·h/mL
- half-life ([2]; po, 2 mg, single oral dose 2 mg, mean (%CV), read-out: T1/2 (converted)): 5.43 h
- AUC(0-t) ([2]; po, 5 mg, single oral dose 5 mg, mean (%CV), read-out: AUC(0-24)): 733 ng·h/mL
- AUC(0-t) ([2]; po, 5 mg, single oral dose 5 mg, mean (%CV), read-out: AUC(0-t)): 735 ng·h/mL
- half-life ([2]; po, 5 mg, single oral dose 5 mg, mean (%CV), read-out: T1/2 (converted)): 5.43 h
- AUC(0-t) ([2]; po, 10 mg, single oral dose 10 mg, mean (%CV), read-out: AUC(0-24)): 891 ng·h/mL
- AUC(0-t) ([2]; po, 10 mg, single oral dose 10 mg, mean (%CV), read-out: AUC(0-t)): 905 ng·h/mL
- half-life ([2]; po, 10 mg, single oral dose 10 mg, mean (%CV), read-out: T1/2 (converted)): 9.47 h
- AUC(0-t) ([2]; po, 20 mg, single oral dose 20 mg, mean (%CV), read-out: AUC(0-24)): 2190 ng·h/mL
- AUC(0-t) ([2]; po, 20 mg, single oral dose 20 mg, mean (%CV), read-out: AUC(0-t)): 2240 ng·h/mL
- half-life ([2]; po, 20 mg, single oral dose 20 mg, mean (%CV), read-out: T1/2 (converted)): 7.79 h
- AUC(0-t) ([2]; po, 30 mg, single oral dose 30 mg, mean (%CV), read-out: AUC(0-24)): 3260 ng·h/mL
- AUC(0-t) ([2]; po, 30 mg, single oral dose 30 mg, mean (%CV), read-out: AUC(0-t)): 3380 ng·h/mL
- half-life ([2]; po, 30 mg, single oral dose 30 mg, mean (%CV), read-out: T1/2 (converted)): 8.12 h
- AUC(0-inf) [2, 4]: 151 ng·h/mL
- Cmax [2, 4]: 43.4 ng/mL
- Vd/F [2, 4]: 38.8 L
- AUC(0-inf) [2, 5]: 296 ng·h/mL
- Cmax [2, 5]: 78.8 ng/mL
- Vd/F [2, 5]: 57.9 L
- AUC(0-inf) [2, 6]: 743 ng·h/mL
- Cmax [2, 6]: 246 ng/mL
- Vd/F [2, 6]: 53 L
- AUC(0-inf) [2, 7]: 914 ng·h/mL
- Cmax [2, 7]: 454 ng/mL
- Vd/F [2, 7]: 147 L
- AUC(0-inf) [2, 8]: 2250 ng·h/mL
- Cmax [2, 8]: 997 ng/mL
- Vd/F [2, 8]: 99.1 L
- AUC(0-inf) [2, 9]: 3400 ng·h/mL
- Cmax [2, 9]: 1140 ng/mL
- Vd/F [2, 9]: 113 L

Reference: patent US20140120060A1, “TREATMENT OF RHEUMATOID ARTHRITIS AND ASTHMA USING PI3 KINASE INHIBITORS” (INFINITY PHARMACEUTICALS, INC., priority 2012, published 2014)
